Experimental data published in PMC8476055, “Synthesis and Biological Activity of Triterpene–Coumarin Conjugates” (Journal of Natural Products, 2021).

Tests used:
[1] = tested on: HT29 cells; test: Mitochondrial-membrane potential (Rh123) flow cytometry, HT29; assay type: cell-based, human; conditions: HT29, 72 h at IC50 concentration
Method: (§1) The study of the loss of the mitochondrial-membrane potential (MMP) of tumor cells, when treated with drugs, can provide information on the activation mechanism of apoptosis. This activation can occur extrinsically when MMP is not altered, and intrinsically when a loss of this potential is caused by mitochondrial disruption. […] The values of percentage of cell population were expressed as means ± SEM of at least two experiments in duplicate. Changes in MMP were analyzed by monitoring cell fluorescence after staining with rhodamine 123 (Rh123).
(§2) The electrochemical gradient across the mitochondrial membrane was examined by analytical flow cytometry, using dihydrorhodamine (DHR), which in contact with living cells, oxidized to form highly fluorescent rhodamine 123 (Rh123). The fluorescence emitted can be monitored by fluorescence spectroscopy using excitation and emission wavelengths of 500 and 536 nm, respectively. […] Following treatment, the culture medium was renewed with fresh medium by adding 0.5 mL of DHR, for a final concentration of […]. Cells were incubated for 1 h at 37 °C in an atmosphere of 5% CO2 and 95% humidity and subsequently washed and resuspended in PBS. The fluorescence intensity was measured using a FACScan flow cytometer (fluorescence-activated cell sorter). The experiments were performed three times with two replicates per assay.

[2] = tested on: Hep G2 cells; test: Cell-cycle distribution by PI flow cytometry, Hep G2; assay type: cell-based, human; conditions: Hep G2, 72 h at IC50 concentration
Method: (§3) Based on the cytotoxicity shown by derivatives 1, 4, 7, and 10, a study was made concerning their effects on the distribution of the cell cycle in order to determine possible cytostatic effects caused by the cytotoxic response. The percentages of cells in the different phases of the cycle were analyzed at 72 h, by the incorporation of propidium iodide. […] The values of cell percentage were expressed as means ± SEM of at least two independent experiments performed in triplicate. Flow cytometry was also used to measure DNA ploidy and alterations in cell-cycle profiles. The DNA content is proportional to the fluorescence of propidium iodide, enabling the percentage of cells to be determined in each phase of the cycle and the cell subpopulations with different DNA contents to be visualized.
(§4) The method used to quantify the amount of DNA in the different phases of the cell cycle (G0/G1, S, and G2/M) was performed by flow cytometry, using a fluorescence-activated cell sorter (FACS) at 488 nm in an Epics XL flow cytometer (Coulter Corporation, Hialeah, FL, USA). For this assay, 5 × 10^4 B16–F10, 6 × 10^4 HT29 cells, and 15 × 10^4 Hep G2 cells were placed in 24-well plates with 1.5 mL of medium and incubated for 24 h. After this time, the cells were treated with the different selected compounds for 72 h at their corresponding IC50 concentrations. After treatment, the cells were washed twice with PBS, trypsinized, and resuspended in 1X TBS (10 mM Tris and 150 mM NaCl); thereafter, Vindelov buffer (100 mM Tris, 100 mM NaCl, 10 mg/mL Rnase, and 1 mg/mL PI, at pH 8) was added. Cells were stored on ice and, just before measurement, were stained with 10 μL of 1 mg/mL PI solution. Approximately, 10 × 10^3 cells were analyzed in each experiment. The experiments were performed three times with two replicates per assay.

[3] = tested on: Hep G2 cells; test: Mitochondrial-membrane potential (Rh123) flow cytometry, Hep G2; assay type: cell-based, human; conditions: Hep G2, 72 h at IC50 concentration
Method: as §1, §2

[4] = tested on: B16–F10 cells; test: Cell-cycle distribution by PI flow cytometry, B16–F10; assay type: cell-based, murine; conditions: B16–F10, 72 h at IC50 concentration
Method: as §3, §4

[5] = tested on: HPF normal human epithelial lung fibroblasts; test: MTT assay, nontumor HPF cells; assay type: cell-based; conditions: Homo sapiens, Fibroblast; MTT, untreated control = 100% viability; read-out: IC50, growth inhibition of HPF non-tumor cells
Source text: (§5) Only MA conjugates 7 and 10 were selected to compare the growth inhibitory effects in the three nontumor cell lines (HPF, IEC-18, and WRL68) versus the three cancer cell lines (B16–F10, HT29, and Hep G2). Therefore, the cytotoxic effects on B16–F10 murine melanoma cells were compared with those of HPF normal human epithelial lung fibroblasts, with similar tissue. Similarly, the cytotoxic effects of these conjugates on HT29 colon cancer cells and Hep G2 hepatoma cells were compared with those of nontumor cells of the same tissue, such as IEC-18 normal rat ileum cells and WRL68 normal human embryo liver cells, respectively.
(§6) […] ATTC HTB-38), Hep G2 human hepatocyte carcinoma cells (ECACC 85011430), nontumor human epithelial lung fibroblast cells HPF (ScienCell catalog (cat.) no. 3300), nontumor rat ileum cells IEC-18 (ECACC no. 88011801), and nontumor human embryo liver cells (ECACC 89121403) were cultured in DMEM medium supplemented with 2 mM glutamine, 10% heat-inactivated fetal bovine serum (FCS), 10.000 units/mL penicillin, and […]. These cells were incubated at 37 °C in an atmosphere of 5% CO2 and 95% humidity. The culture media were changed every 48 h, and the confluent cultures were separated with a trypsin solution (0.25% EDTA). Subconfluent monolayer cells were used in all experiments. All cell lines used were provided by the cell bank of the University of Granada (Spain).
(§7) The effect of the synthesized compounds on the viability of tumor cells was assessed using an MTT assay, based on the ability of living cells to cleave the tetrazolium ring, thus producing formazan, which absorbs at 570 nm. The MA conjugates (1–12) were assayed against the selected cancer cell lines. For an evaluation of the cytotoxic effects of these compounds, the cells were seeded in 96-well plates at an initial density of 5 × 10^3 B16–F10 cells, 6 × 10^3 HT29 cells, 15 × 10^3 Hep G2 cells, 8 × 10^3 HPF cells, 15 × 10^3 IEC-18 cells, and 11 × 10^3 WRL68 cells, per well. After incubation for 24 h, the cells were treated with the synthesized compounds in triplicate, at different concentrations (0–200 μg/mL), and incubated for 72 h. Thereafter, 100 μL of MTT solution (0.5 mg/mL) were added to each well. After 2 h of incubation, the cells were washed twice with phosphate buffered saline (PBS), and the formazan was resuspended in 100 μL of DMSO. Relative cell viability, with respect to untreated control cells, was measured by absorbance at 550 nm on an ELISA plate reader (Tecan Sunrise MR20-301, TECAN, Austria). […] These experiments were measured and compared to the control after 72 h of treatment.

[6] = MTT assay, nontumor HPF cells; assay type: cell-based, human; conditions: human, HPF normal lung fibroblast cells; at the compound's IC50 concentration for B16–F10 cancer cells; read-out: percent viability (% viability) of HPF cells
Source text: as §5, §6, §7

[7] = MTT assay, nontumor WRL68 cells; assay type: cell-based, human; conditions: human, WRL68 normal embryo liver cells; at the compound's IC50 concentration for Hep G2 cancer cells
Source text: as §5, §6, §7

[8] = tested on: WRL68 normal human embryo liver cells; test: MTT assay, nontumor WRL68 cells; assay type: cell-based; conditions: Homo sapiens, WRL68; MTT, untreated control = 100% viability; read-out: IC50, growth inhibition of WRL68 non-tumor cells
Source text: as §5, §6, §7

| Structure (SMILES) | Rh123 staining (mitochondrial-membrane potential) [1] | percentage of cells in the G0/G1 phase [2] | Rh123 staining (mitochondrial-membrane potential) [3] | percentage of cells in the G0/G1 phase [4] | IC50 [5] | viability at 72 h [6] | viability at 72 h [7] | IC50 [8] |
| --- | --- | --- | --- | --- | --- | --- | --- | --- |
| CC1(C)CC[C@]2(C(=O)NCCCNC(=O)Cc3cc(=O)oc4cc(O)ccc34)CC[C@]3(C)C(=CC[C@@H]4[C@@]5(C)C[C@@H](O)[C@H](O)C(C)(C)[C@@H]5CC[C@]43C)[C@@H]2C1 [Compound 4, 2α,3β-Dihydroxy-N-(3′-(2″-(7‴-hydroxy-2‴-oxo-2‴H-chromen-4‴-yl)acetamido)propyl)olean-12-en-28-amide] | positive Rh123 staining | greater than 70% | negative Rh123 staining | greater than 70% | – | – | – | – |
| CC1(C)CC[C@]2(C(=O)NCCCNC(=O)c3cc4ccccc4oc3=O)CC[C@]3(C)C(=CC[C@@H]4[C@@]5(C)C[C@@H](O)[C@H](O)C(C)(C)[C@@H]5CC[C@]43C)[C@@H]2C1 [Compound 1, 2α,3β-Dihydroxy-N-(3′-(2″-oxo-2″H-chromene-3″-carboxamido)propyl)olean-12-en-28-amide] | positive Rh123 staining | greater than 70% | negative Rh123 staining | – | – | – | – | – |
| CC1(C)CC[C@]2(C(=O)O)CC[C@]3(C)C(=CC[C@@H]4[C@@]5(C)C[C@@H](OC(=O)c6cc7ccccc7oc6=O)[C@H](OC(=O)c6cc7ccccc7oc6=O)C(C)(C)[C@@H]5CC[C@]43C)[C@@H]2C1 [Compound 10] | positive Rh123 staining | greater than 70% | negative Rh123 staining | greater than 70% | 24.5 ± 1.9 µM | 92.9 ± 2.9% | 87.4 ± 1.7% | 6.2 µM |
| CC1(C)CC[C@]2(C(=O)NCCCNC(=O)/C=C/c3ccc(O)cc3)CC[C@]3(C)C(=CC[C@@H]4[C@@]5(C)C[C@@H](O)[C@H](O)C(C)(C)[C@@H]5CC[C@]43C)[C@@H]2C1 [Compound 7, 2α,3β-Dihydroxy-N-(3′-((E)-3″-(4‴-hydroxyphenyl)acrylamido)propyl)olean-12-en-28-amide] | positive Rh123 staining | greater than 70% | – | greater than 70% | 38.8 ± 1.3 µM | 76.9 ± 2.9% | 61.4 ± 1.3% | 16.3 ± 0.9 µM |
